Assay [1] relates to B. cereus. As to the kind of experiment: MIC assay, antibiotic with or without DSF-family molecules. It counts as cell-based, Bacillus cereus. The note with it: for MIC of Gentamicin, Mean: gentamicin alone (MeOH control, no DSF-family molecule). Here is the method:
(§1) Minimum inhibitory concentration (MIC) was determined according to the 2003 guidelines of Clinical and Laboratory Standards Institute (CLSI) using 96-well microtiter plates. The two-fold dilution series of antibacterial agents or antibiotics were prepared with distilled water, methanol, or dimethyl sulfoxide (DMSO). Overnight cultures of bacteria were inoculated at an OD600 of 0.025 in Luria-Bertani (LB) broth supplemented with the respective antibiotic in the absence or presence of DSF-family molecules (Table 1). One hundred microliters of inoculated culture were grown in each well at 37° C. with shaking at 150 rpm for 24 hours. MIC was defined as the lowest concentration of antibiotic in which bacterial growth in the well was not measureable by determination of the turbidity at 600 nm.

The subject of assay [2] is P. aeruginosa strain PAO1. Kind of assay: Bacterial growth analysis (Bioscreen-C). It counts as cell-based, Pseudomonas aeruginosa. The protocol: (§2) Overnight bacterial cultures grown in LB broth was inoculated in the same medium to an OD600 of 0.025; the medium was supplemented with a respective antibiotic and DSF-family signals were added in a final concentration of 50 μM or otherwise indicated. Three hundred microliters of inoculated culture were grown in each well at 37° C. in a low intensity shaking model using the Bioscreen-C Automated Growth Curves Analysis System (OY Growth Curves AB Ltd, Finland).
P. aeruginosa is a major source of opportunistic infections in both immunocompromised individuals and cystic fibrosis patients (Bodey et al., 1983; Richards et al., 2000). It appeared to be less responsive to DSF than other tested bacterial pathogen in our preliminary MIC assay. We therefore used the Bioscreen-C Automated Growth Curves Analysis System to determine the synergistic effect of DSF with antibiotics. Gentamicin and kanamycin were added to the culture of P. aeruginosa strain PAO1 at a final concentration of 2 nM and 0.2 μM, respectively, in the absence and presence of 50 μM DSF.

Assay [3] concerns B. cereus. As to the kind of experiment: Bacterial growth analysis (Bioscreen-C). In kind it is cell-based, Bacillus cereus. The note with it: final concentration of 50 μM, no antibiotic. The protocol: as §2
A further assay has as its system N. subflava. As to the kind of experiment: MIC assay, antibiotic with or without DSF. In kind it is cell-based, Neisseria subflava. Conditions: DSF 50 μM. The protocol: as §1
The test system of another assay is B. thuringiensis. As to the kind of experiment: MIC assay, antibiotic with or without DSF. It counts as cell-based, Bacillus thuringiensis. Conditions: DSF 50 μM. Here is the method: as §1
A further assay deals with M. smegmatis. Kind of assay: MIC assay, antibiotic with or without DSF. It counts as cell-based, Mycobacterium smegmatis. The note with it: DSF 50 μM. The protocol: as §1
A further assay has as its system S. aureus. Kind of assay: MIC assay, antibiotic with or without DSF. The note with it: DSF 50 μM. In kind it is cell-based, Staphylococcus aureus. Here is the method:
as §1

The mark [4] stands for this setting: 50 μM DSF-family molecule vs MeOH control.

For `CCCCCCCCCCCC(=O)O` [Compound S12], in the assay with B. cereus [1] (setting [4]), the “Fold Change of MIC of Ampicillin” value came to 0, the “Fold Change of MIC of Kanamycin” value was found to be 8, the “Fold Change of MIC of Rifampicin” value came out at 2 and the “Fold change of MIC of Gentamicin” value is on record as 4.
As for `CCCCCCC/C=C/C(=O)O` [Compound T10], in the assay on B. cereus [1] (setting [4]), the “Fold Change of MIC of Ampicillin” value is 0, the “Fold Change of MIC of Kanamycin” value came out at 4, the “Fold Change of MIC of Rifampicin” value came out at 2 and the “Fold change of MIC of Gentamicin” value stood at 2.
`CCCCCCCCC/C=C/C(=O)O` [Compound T12]: in the assay with B. cereus [1] (setting [4]), the “Fold Change of MIC of Ampicillin” value was 0, the “Fold Change of MIC of Kanamycin” value is on record as 16, the “Fold Change of MIC of Rifampicin” value was 1.3 and the “Fold change of MIC of Gentamicin” value worked out at 21.3.
As for gentamicin [reference compound], the entries for the “MIC of Gentamicin, Mean” value in the assay with B. cereus [1] and in the assay on B. cereus [1] (listed as gentamicin) were 8 µg/mL and 8.0 µg/mL, respectively. For the same compound, the “time of recovery of bacterial growth” value in assay [2] (gentamicin 2 nM alone) is 10 hour post inoculation.
With `CCCCCCC/C=C\C(=O)O` [Compound C10], in the assay on B. cereus [1] (setting [4]), the “Fold Change of MIC of Ampicillin” value is 0, the “Fold Change of MIC of Kanamycin” value is on record as 4, the “Fold Change of MIC of Rifampicin” value is given as 2.6 and the “Fold change of MIC of Gentamicin” value came to 2.
With `CCCCCCCCC/C=C\C(=O)O` [Compound C12], the “effect on bacterial growth rate” value in the assay on B. cereus [3] is given as “did not affect the bacterial growth rate”. In the assay with B. cereus [1] (setting [4]), the “Fold Change of MIC of Ampicillin” value is 0, the “Fold Change of MIC of Kanamycin” value turned out to be 4, the “Fold Change of MIC of Rifampicin” value is recorded as 2.6 and the “Fold change of MIC of Gentamicin” value is recorded as 8.
With `CCCCCCCC/C=C\C(=O)O` [Compound C11], in the assay on B. cereus [1] (setting [4]), the “Fold Change of MIC of Kanamycin” value was found to be 16, the “Fold Change of MIC of Rifampicin” value was determined as 4 and the “Fold change of MIC of Gentamicin” value stood at 16.
Consider `NC[C@H]1O[C@H](O[C@H]2[C@H](O)[C@@H](O[C@H]3O[C@H](CO)[C@@H](O)[C@H](N)[C@H]3O)[C@H](N)C[C@@H]2N)[C@H](O)[C@@H](O)[C@@H]1O` [Kanamycin, kanamycin, reference compound], for which the “time of recovery of bacterial growth” value in assay [2] (kanamycin 0.2 μM alone) came out at 22 hour post inoculation.
Take `CCCCCCCCCCC/C=C\C(=O)O` [Compound C14]: in the assay on B. cereus [1] (setting [4]), the “Fold Change of MIC of Ampicillin” value came to 0, the “Fold Change of MIC of Kanamycin” value was 32, the “Fold Change of MIC of Rifampicin” value turned out to be 2 and the “Fold change of MIC of Gentamicin” value came out at 32.
Regarding `CCCCCCCCCCCC/C=C\C(=O)O` [Compound C15], the “drug adjuvant with ampicillin” value in the assay on B. cereus [1] (50 μM DSF-family molecule) was “best drug adjuvant with ampicillin”. In addition, in the assay on B. cereus [1] (setting [4]), the “Fold Change of MIC of Kanamycin” value is on record as 32, the “Fold Change of MIC of Rifampicin” value is reported as 4 and the “Fold change of MIC of Gentamicin” value is given as 128.
For the compound `CCCCCCCCCC/C=C\C(=O)O` [Compound C13], in the assay on B. cereus [3], the “effect on bacterial growth rate” value was “did not affect the bacterial growth rate”. The “Fold Change of MIC of Kanamycin” value amounted to 2 in the assay on B. cereus [1] (5 μM C13 vs MeOH); 2 with B. cereus [1] (10 μM C13 vs MeOH); 8 in the assay with B. cereus [1] (20 μM C13 vs MeOH); 8 in the assay with B. cereus [1] (30 μM C13 vs MeOH); 16 with B. cereus [1] (40 μM C13 vs MeOH); 16 in the assay on B. cereus [1] (50 μM C13 vs MeOH). For the same compound, the “Fold Change of MIC of Kanamycin” value with B. cereus [1] (setting [4]) came out at 16. The “Fold change of MIC of Gentamicin” value with B. cereus [1] (5 μM C13 vs MeOH) came out at 0; in the assay with B. cereus [1] (10 μM C13 vs MeOH) it was 2; in the assay on B. cereus [1] (20 μM C13 vs MeOH), 4; in the assay with B. cereus [1] (30 μM C13 vs MeOH), 8; in the assay on B. cereus [1] (40 μM C13 vs MeOH), 21.3; in the assay on B. cereus [1] (50 μM C13 vs MeOH), 32. The “Fold change of MIC of Gentamicin” value in the assay with B. cereus [1] (setting [4]) is recorded as 32. Moreover, the “Fold Change of MIC of Ampicillin” value in the assay on B. cereus [1] (setting [4]) amounted to 0. In the assay on B. cereus [1] (setting [4]), the “Fold Change of MIC of Rifampicin” value is reported as 2.6.
For `CCCCCCCCCCCC/C=C/C(=O)O` [Compound T15], in the assay with B. cereus [1] (setting [4]), the “Fold Change of MIC of Ampicillin” value was found to be 0, the “Fold Change of MIC of Kanamycin” value worked out at 2, the “Fold Change of MIC of Rifampicin” value is reported as 2 and the “Fold change of MIC of Gentamicin” value is 0.
Turning to `CC(C)CCCCCCC/C=C\C(=O)O` [DSF, cis 11-methyl-2-dodecenoic acid], the “effect on bacterial growth rate” value with B. cereus [3] is “did not affect the bacterial growth rate”. Further, in the assay on N. subflava, the “effect on MIC of ampicillin” value is recorded as “did not affect”, the “effect on MIC of rifampicin” value is recorded as “did not affect”, the “reduction of MIC of gentamicin” value was “about 50%” and the “reduction of MIC of kanamycin” value is “about 50%”. Also, in the assay with B. thuringiensis, the “decrease of MIC of ampicillin” value is listed as 75%, the “decrease of MIC of gentamicin” value is on record as 93.75%, the “decrease of MIC of kanamycin” value was determined as 93.75% and the “decrease of MIC of rifampicin” value is on record as 75%. Besides, in the assay with B. cereus [1] (5 μM DSF vs MeOH), the “Fold Change of MIC of Kanamycin” value amounted to 1.3 and the “Fold change of MIC of Gentamicin” value worked out at 2. Moreover, in the assay on B. cereus [1] (10 μM DSF vs MeOH), the “Fold Change of MIC of Kanamycin” value came out at 2 and the “Fold change of MIC of Gentamicin” value stood at 2. In addition, in the assay with B. cereus [1] (20 μM DSF vs MeOH), the “Fold Change of MIC of Kanamycin” value is 2 and the “Fold change of MIC of Gentamicin” value came to 5.3. In the assay on B. cereus [1] (30 μM DSF vs MeOH), the “Fold Change of MIC of Kanamycin” value was 5.3 and the “Fold change of MIC of Gentamicin” value worked out at 8. Further, in the assay with B. cereus [1] (40 μM DSF vs MeOH), the “Fold Change of MIC of Kanamycin” value is 5.3 and the “Fold change of MIC of Gentamicin” value is listed as 16. For the same compound, in the assay with B. cereus [1] (50 μM DSF vs MeOH), the “Fold Change of MIC of Kanamycin” value was found to be 16 and the “Fold change of MIC of Gentamicin” value stood at 16. In addition, in the assay with B. cereus [1] (setting [4]), the “Fold Change of MIC of Ampicillin” value stood at 0, the “Fold Change of MIC of Kanamycin” value was found to be 16, the “Fold Change of MIC of Rifampicin” value is 2 and the “Fold change of MIC of Gentamicin” value is on record as 16. Besides, in the assay with M. smegmatis, the “enhancement of susceptibility to gentamicin” value was 50%, the “enhancement of susceptibility to kanamycin” value was found to be 25% and the “enhancement of susceptibility to trimethoprim” value was determined as 50%. Moreover, in the assay on S. aureus, the “reduction of MIC of ampicillin” value turned out to be 50%, the “reduction of MIC of gentamicin” value stood at 50% and the “reduction of MIC of kanamycin” value worked out at 50%. Besides, the “effect on susceptibility to gentamicin” value in assay [2] (50 μM DSF + gentamicin 2 nM) was “enhanced the susceptibility”. Moreover, the “delay of bacterial growth” value in assay [2] (50 μM DSF + gentamicin 2 nM vs gentamicin alone) was determined as 6 h. The “effect on susceptibility to kanamycin” value in assay [2] (50 μM DSF + kanamycin 0.2 μM) is listed as “enhanced the susceptibility”. In addition, in assay [2] (50 μM DSF + kanamycin 0.2 μM vs kanamycin alone), the “delay of bacterial growth” value is 8 h. Further, the “effect on growth rate” value in assay [2] (50 μM DSF, no antibiotic) is listed as “did not affect the growth rate”.
Regarding `CCCCC/C=C\C(=O)O` [Compound C8], in the assay on B. cereus [1] (setting [4]), the “Fold Change of MIC of Ampicillin” value is reported as 0, the “Fold Change of MIC of Kanamycin” value was 2, the “Fold Change of MIC of Rifampicin” value stood at 2 and the “Fold change of MIC of Gentamicin” value is reported as 0.
As for `CCCCCCCC/C=C/C(=O)O` [Compound T11], in the assay on B. cereus [1] (setting [4]), the “Fold Change of MIC of Kanamycin” value came out at 8, the “Fold Change of MIC of Rifampicin” value is listed as 2.6 and the “Fold change of MIC of Gentamicin” value was found to be 16.
For the compound `CCCCCCCCCC/C=C/C(=O)O` [Compound T13], in the assay on B. cereus [1] (setting [4]), the “Fold Change of MIC of Ampicillin” value came to 0, the “Fold Change of MIC of Kanamycin” value was determined as 5.3, the “Fold Change of MIC of Rifampicin” value was 2 and the “Fold change of MIC of Gentamicin” value worked out at 8.
Turning to `CCCCC/C=C/C(=O)O` [Compound T8], in the assay on B. cereus [1] (setting [4]), the “Fold Change of MIC of Ampicillin” value was found to be 0, the “Fold Change of MIC of Kanamycin” value is recorded as 2, the “Fold Change of MIC of Rifampicin” value is on record as 0 and the “Fold change of MIC of Gentamicin” value is on record as 0.
Turning to `CCCCCCCCCCC/C=C/C(=O)O` [Compound T14], in the assay on B. cereus [1] (50 μM DSF-family molecule), the “synergistic activity with kanamycin” value is “strongest synergistic activity”. Also, in the assay on B. cereus [1] (setting [4]), the “Fold Change of MIC of Kanamycin” value was found to be 64, the “Fold Change of MIC of Rifampicin” value was determined as 1.3 and the “Fold change of MIC of Gentamicin” value is 128.
